Patent publication US11117900B2 (Vertex Pharmaceuticals Incorporated, priority 2012, dated 2021)

test system: HCT116 colorectal cancer cells; assay: Cisplatin sensitization assay (96 h MTS cell viability); type: cell-based; conditions: Cisplatin sensitization value;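 also: compound concentration needed to lower the IC50 of Cisplatin alone by a set fold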
Summary of the method: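 The MTS viability read, after 1 h with reagent, followed 96 h of co-treatment at 37° C. in 5% CO2. Both compound and cisplatin were titrated 2-fold from a 10 μM top final concentration in a complete concentration matrix on HCT116 cells. Scores +++/++/+ reflect cisplatin sensitization value ranges.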

Row | SMILES | Cisplatin Sensitization Assay
1 | CN1CCCN(c2ccncc2NC(=O)c2c(N)nn3cc(Cl)cnc23)CC1 [I-N-43, 2-amino-6-chloro-N-(4-(4-methyl-1,4-diazepan-1-yl)pyridin-3-yl)pyrazolo[1,5-a]pyrimidine-3-carboxamide] | ++ (Compounds with a Cisplatin sensitization value >0.02 μM but <0.2 μM are marked with “++.”)
2 | Nc1nn2cc(Cl)cnc2c1C(=O)Nc1cnccc1N1CCn2ccnc2C1 [I-N-44, 2-amino-6-chloro-N-(4-(5,6-dihydroimidazo[1,2-a]pyrazin-7(8H)-yl)pyridin-3-yl)pyrazolo[1,5-a]pyrimidine-3-carboxamide] | ++ (Compounds with a Cisplatin sensitization value >0.02 μM but <0.2 μM are marked with “++.”)
3 | CN(C)CC1CCN(c2ccncc2NC(=O)c2c(N)nn3cc(Cl)cnc23)CC1 [I-N-45, 2-amino-6-chloro-N-(4-(4-((dimethylamino)methyl)piperidin-1-yl)pyridin-3-yl)pyrazolo[1,5-a]pyrimidine-3-carboxamide] | ++ (Compounds with a Cisplatin sensitization value >0.02 μM but <0.2 μM are marked with “++.”)
4 | COC1(CN(C)C)CCN(c2ccncc2NC(=O)c2c(N)nn3cc(Cl)cnc23)CC1 [I-N-46, 2-amino-6-chloro-N-(4-(4-((dimethylamino)methyl)-4-methoxypiperidin-1-yl)pyridin-3-yl)pyrazolo[1,5-a]pyrimidine-3-carboxamide] | +++ (Compounds with a Cisplatin sensitization value of <0.02 μM are marked with “+++.”)
5 | COCC1CN(c2ccncc2NC(=O)c2c(N)nn3cc(Cl)cnc23)CCN1C (centres unmarked) [I-N-47, 2-amino-6-chloro-N-(4-(3-(methoxymethyl)-4-methylpiperazin-1-yl)pyridin-3-yl)pyrazolo[1,5-a]pyrimidine-3-carboxamide] | ++ (Compounds with a Cisplatin sensitization value >0.02 μM but <0.2 μM are marked with “++.”)
6 | Nc1nn2cc(Cl)cnc2c1C(=O)Nc1cnccc1N1CCN(C2CCC2)CC1 [I-N-48, 2-amino-6-chloro-N-(4-(4-cyclobutylpiperazin-1-yl)pyridin-3-yl)pyrazolo[1,5-a]pyrimidine-3-carboxamide] | ++ (Compounds with a Cisplatin sensitization value >0.02 μM but <0.2 μM are marked with “++.”)
7 | CN(C)CCN1CCN(c2ccncc2NC(=O)c2c(N)nn3cc(Cl)cnc23)CC1 [I-N-49, 2-amino-6-chloro-N-(4-(4-(2-(dimethylamino)ethyl)piperazin-1-yl)pyridin-3-yl)pyrazolo[1,5-a]pyrimidine-3-carboxamide] | +++ (Compounds with a Cisplatin sensitization value of <0.02 μM are marked with “+++.”)
8 | CN1CCN(c2cc(N)ncc2NC(=O)c2c(N)nn3cc(Cl)cnc23)CC1 [I-N-50, 2-amino-N-(6-amino-4-(4-methylpiperazin-1-yl)pyridin-3-yl)-6-chloropyrazolo[1,5-a]pyrimidine-3-carboxamide] | + (Compounds with a Cisplatin sensitization value >0.2 μM but <5 μM are marked with “+.”)
9 | CN1CCN(c2cc(Cl)ncc2NC(=O)c2c(N)nn3cc(Cl)cnc23)CC1 [I-N-52, 2-amino-6-chloro-N-(6-chloro-4-(4-methylpiperazin-1-yl)pyridin-3-yl)pyrazolo[1,5-a]pyrimidine-3-carboxamide] | ++ (Compounds with a Cisplatin sensitization value >0.02 μM but <0.2 μM are marked with “++.”)
10 | CN1CCN(c2ccncc2NC(=O)c2c(N)nn3cc(Cl)cnc23)CC1(C)C [I-N-53, 2-amino-6-chloro-N-(4-(3,3,4-trimethylpiperazin-1-yl)pyridin-3-yl)pyrazolo[1,5-a]pyrimidine-3-carboxamide] | ++ (Compounds with a Cisplatin sensitization value >0.02 μM but <0.2 μM are marked with “++.”)
11 | CC1CN(c2ccncc2NC(=O)c2c(N)nn3cc(Cl)cnc23)CCN1C (centres unmarked) [I-N-54, 2-amino-6-chloro-N-(4-(3,4-dimethylpiperazin-1-yl)pyridin-3-yl)pyrazolo[1,5-a]pyrimidine-3-carboxamide] | +++ (Compounds with a Cisplatin sensitization value of <0.02 μM are marked with “+++.”)
